Results: PubChem BioAssay AID256 (DTP/NCI, 2004)
Inconclusive results and toxic doses are left out. Rule for the calls: active = survival T/C of 150% or more; inactive = T/C below 125% in these data.

Tested on: CD2F1 mice, L1210 leukemia ip, survival T/C
Assay: NCI In Vivo Anticancer Drug Screen. Data for tumor model L1210 Leukemia (intraperitoneal) in CD2F1 (CDF1) mice
Conditions: endpoint: mean survival time, higher = longer survival
How it was run: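 Each value reflects a quotient of treated over vehicle control outcomes in mice with a transplanted tumor.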

[1] = dose: 100.0 mg/kg/injection, schedule: Q04DX003 (ip), vehicle: saline
[2] = dose: 200.0 mg/kg/injection, schedule: Q04DX003 (ip), vehicle: saline
[3] = dose: 400.0 mg/kg/injection, schedule: Q04DX003 (ip), vehicle: saline
[4] = dose: 100.0 mg/kg/injection, schedule: Q01DX009 (ip), vehicle: saline with Tween-80
[5] = dose: 100.0 mg/kg/injection, schedule: Q01DX001 (ip), vehicle: saline with Tween-80
[6] = dose: 200.0 mg/kg/injection, schedule: Q01DX001 (ip), vehicle: saline with Tween-80
[7] = dose: 400.0 mg/kg/injection, schedule: Q01DX001 (ip), vehicle: saline with Tween-80
[8] = dose: 100.0 mg/kg/injection, schedule: Q04DX003 (ip), vehicle: saline with Tween-80
[9] = dose: 200.0 mg/kg/injection, schedule: Q04DX003 (ip), vehicle: saline with Tween-80
[10] = dose: 400.0 mg/kg/injection, schedule: Q04DX003 (ip), vehicle: saline with Tween-80

Measured: T/C

N#Cc1cc(N2CC2)c([N+](=O)[O-])cc1[N+](=O)[O-]
inactive: dose: 100.0 mg/kg/injection, schedule: Q01DX001 (ip), vehicle: Klucel (hydroxypropylcellulose) (HPC) 102 % of control | dose: 200.0 mg/kg/injection, schedule: Q01DX001 (ip), vehicle: Klucel (hydroxypropylcellulose) (HPC) 103 % of control | dose: 400.0 mg/kg/injection, schedule: Q01DX001 (ip), vehicle: Klucel (hydroxypropylcellulose) (HPC) 103 % of control

Cc1ccc(C(C)C)c(OCC2=NCCN2C)c1
inactive: [1] 106 % of control | [2] 106 % of control

O=S(=O)(O)SCc1ccccc1CSS(=O)(=O)O
inactive: [1] 96 % of control | [2] 101 % of control | [3] 108 % of control

Cc1cc(=O)c2c(=O)[nH][nH]c2[nH]1
inactive: [4] 98 % of control | dose: 200.0 mg/kg/injection, schedule: Q01DX009 (ip), vehicle: saline with Tween-80 104 % of control

CC/C(I)=C(/CC)S(=O)(=O)c1ccc(C)cc1
inactive: [1] 95 % of control | [2] 103 % of control | [3] 94 % of control

CC(=O)c1ccccc1C(C)C
inactive: dose: 25.0 mg/kg/injection, schedule: Q01DX009 (ip), vehicle: saline with Tween-80 91 % of control | dose: 50.0 mg/kg/injection, schedule: Q01DX009 (ip), vehicle: saline with Tween-80 96 % of control | [4] 94 % of control

O=C(NC(=S)Nc1ccccc1C(=O)O)c1ccccc1
inactive: dose: 66.0 mg/kg/injection, schedule: Q01DX009 (ip), vehicle: saline sonified 103 % of control | dose: 100.0 mg/kg/injection, schedule: Q01DX009 (ip), vehicle: saline sonified 103 % of control | dose: 150.0 mg/kg/injection, schedule: Q01DX009 (ip), vehicle: saline sonified 103 % of control

c1ccc(CSc2ncnc3nc[nH]c23)nc1
inactive: dose: 133.0 mg/kg/injection, schedule: Q04DX003 (ip), vehicle: saline with Tween-80 117 % of control | dose: 300.0 mg/kg/injection, schedule: Q04DX003 (ip), vehicle: saline with Tween-80 102 % of control

CCOC(=O)C(N)Cc1ccc(O)cc1 (stereo unspecified)
inactive: dose: 100.0 mg/kg/injection, schedule: Q04DX003 (ip), vehicle: other 102 % of control | dose: 200.0 mg/kg/injection, schedule: Q04DX003 (ip), vehicle: other 100 % of control | dose: 400.0 mg/kg/injection, schedule: Q04DX003 (ip), vehicle: other 97 % of control

COC(=O)C1(C)CCCC2(C)C3CCC(C)(CCO)CC3C(O)CC12 (stereo unspecified)
inactive: dose: 100.0 mg/kg/injection, schedule: Q01DX001 (ip), vehicle: saline sonified 102 % of control | [5] 96 % of control | dose: 200.0 mg/kg/injection, schedule: Q01DX001 (ip), vehicle: saline sonified 101 % of control | [6] 101 % of control | dose: 400.0 mg/kg/injection, schedule: Q01DX001 (ip), vehicle: saline sonified 93 % of control | [7] 105 % of control

C=C(NC(C)=O)C(=O)CCC(N)=O
inactive: dose: 5.0 mg/kg/injection, schedule: Q01DX009 (ip), vehicle: saline 101 % of control | dose: 10.0 mg/kg/injection, schedule: Q01DX009 (ip), vehicle: saline 95 % of control | dose: 10.0 mg/kg/injection, schedule: Q04DX003 (ip), vehicle: saline 93 % of control | dose: 20.0 mg/kg/injection, schedule: Q01DX009 (ip), vehicle: saline 98 % of control | dose: 20.0 mg/kg/injection, schedule: Q04DX003 (ip), vehicle: saline 97 % of control

COC(=O)C1(C)CCCC2(C)C3CCC(C)(CCOC(C)=O)CC3C(OC(C)=O)CC12 (stereo unspecified)
inactive: [5] 90 % of control

CS(=O)(=O)c1nc(Cl)c(Cl)c(C#N)c1Cl
inactive: dose: 5.0 mg/kg/injection, schedule: Q01DX009 (ip), vehicle: saline with Tween-80 100 % of control | dose: 10.0 mg/kg/injection, schedule: Q01DX009 (ip), vehicle: saline with Tween-80 95 % of control | dose: 20.0 mg/kg/injection, schedule: Q01DX009 (ip), vehicle: saline with Tween-80 95 % of control

O=[N+]([O-])c1ccc(/C=C2/c3ccccc3-c3nc4ccccc4cc32)cc1
inactive: [5] 93 % of control | [6] 87 % of control | [7] 93 % of control

[CH3][Pb]([CH3])([CH3])[Cl]
inactive: dose: 1.56 mg/kg/injection, schedule: Q01DX009 (ip), vehicle: saline 97 % of control | dose: 1.56 mg/kg/injection, schedule: Q04DX002 (ip), vehicle: saline 101 % of control | dose: 3.13 mg/kg/injection, schedule: Q01DX009 (ip), vehicle: saline 87 % of control | dose: 3.13 mg/kg/injection, schedule: Q04DX002 (ip), vehicle: saline 108 % of control | dose: 6.25 mg/kg/injection, schedule: Q04DX002 (ip), vehicle: saline 92 % of control | dose: 12.5 mg/kg/injection, schedule: Q04DX002 (ip), vehicle: saline 93 % of control

Cc1c(O)c(Br)c(C)c(O)c1Br (tested in a mixture with another compound)
inactive: dose: 100.0 mg/kg/injection, schedule: Q01DX001 (ip), vehicle: saline 98 % of control | dose: 200.0 mg/kg/injection, schedule: Q01DX001 (ip), vehicle: saline 101 % of control

CCOC(=O)C1(C(=O)OCC)CCC(O)N1C(=O)c1cc2c(cc1[N+](=O)[O-])OCO2 (stereo unspecified)
inactive: dose: 50.0 mg/kg/injection, schedule: Q01DX009 (ip), vehicle: Klucel (hydroxypropylcellulose) (HPC) 97 % of control | dose: 100.0 mg/kg/injection, schedule: Q01DX009 (ip), vehicle: Klucel (hydroxypropylcellulose) (HPC) 101 % of control | dose: 200.0 mg/kg/injection, schedule: Q01DX009 (ip), vehicle: Klucel (hydroxypropylcellulose) (HPC) 101 % of control

Nc1cc(=O)[nH]c(=S)[nH]1.[Pd]
inactive: dose: 3.13 mg/kg/injection, schedule: Q04DX003 (ip), vehicle: distilled water + Tween-80 100 % of control | dose: 6.25 mg/kg/injection, schedule: Q04DX003 (ip), vehicle: distilled water + Tween-80 100 % of control | dose: 12.5 mg/kg/injection, schedule: Q04DX003 (ip), vehicle: distilled water + Tween-80 103 % of control | dose: 25.0 mg/kg/injection, schedule: Q04DX003 (ip), vehicle: distilled water + Tween-80 97 % of control | dose: 50.0 mg/kg/injection, schedule: Q04DX003 (ip), vehicle: distilled water + Tween-80 97 % of control | dose: 100.0 mg/kg/injection, schedule: Q04DX003 (ip), vehicle: distilled water + Tween-80 96 % of control | dose: 200.0 mg/kg/injection, schedule: Q04DX003 (ip), vehicle: distilled water + Tween-80 91 % of control

O=S1(=O)C2CCCCCC2(N2CCOCC2)C1C1CCCCC1 (stereo unspecified)
inactive: [8] 95 % of control | [9] 95 % of control | [10] 97 % of control

Cc1c2c(c(O)c3c(O)cccc13)C(=O)C1(O)C(O)=C(C(N)=O)C(=O)CC1C2 (stereo unspecified)
inactive: dose: 75.0 mg/kg/injection, schedule: Q01DX001 (ip), vehicle: other 92 % of control | dose: 150.0 mg/kg/injection, schedule: Q01DX001 (ip), vehicle: other 94 % of control | dose: 300.0 mg/kg/injection, schedule: Q01DX001 (ip), vehicle: other 102 % of control

C/C(=N\Nc1ccccc1)C1=C(O)C(Cc2ccccc2)NC1=O (stereo unspecified)
inactive: dose: 100.0 mg/kg/injection, schedule: Q04DX002 (ip), vehicle: saline with Tween-80 100 % of control | dose: 200.0 mg/kg/injection, schedule: Q04DX002 (ip), vehicle: saline with Tween-80 100 % of control | dose: 400.0 mg/kg/injection, schedule: Q04DX002 (ip), vehicle: saline with Tween-80 103 % of control

CC(=O)CC(=O)C(F)(F)F.CC(=O)CC(=O)C(F)(F)F.CC(=O)CC(=O)C(F)(F)F.[Sm]
inactive: [8] 95 % of control | [9] 100 % of control | [10] 100 % of control

Nc1cc(Cl)c(O)c(Cl)c1
inactive: [5] 92 % of control

O=C1CC(NCCO)C(=O)NN1 (stereo unspecified)
inactive: [1] 101 % of control | [2] 101 % of control | [3] 104 % of control

Cc1cccc(C)c1NC(=O)CCl
inactive: [5] 103 % of control | [6] 100 % of control

Cc1cc(O)c(N=Nc2cccc(C(=O)O)c2)cc1C
inactive: dose: 50.0 mg/kg/injection, schedule: Q01DX009 (ip), vehicle: saline 107 % of control | dose: 100.0 mg/kg/injection, schedule: Q01DX009 (ip), vehicle: saline 96 % of control | dose: 200.0 mg/kg/injection, schedule: Q01DX009 (ip), vehicle: saline 103 % of control
